Source: publication PMC12683216, “Using High‐Throughput Screening to Identify Crosslinking Peptides That Control Cell‐Mediated Matrix Degradation” (Advanced Healthcare Materials, 2025)
Where a SMILES comes first, the peptide text is derived from it. [ ]: non-standard residue; d: D form. βAla = NCCC(=O)O

Tests used:
Format in all cases: in vitro ADME, human
Conditions in all cases: human, 24 h, LC-MS
[1] = Soluble peptide degradation, Cells condition (LC-MS)
Experimental: (§1) Most in vitro protease activity assays incubate the peptides or proteins of interest with a single protease in a buffered solution. However, the kinetics of protease activity in tissues are complex and highly regulated, and both the activity^[ [37] ^] and substrate specificity^[ [38] ^] of proteases can be modulated through association with other proteins.^[ [39] ^] Most MMP‐substrate peptides are also cleaved by multiple proteases,^[ [5] ^] and within the context of biomaterials, the most important factor is typically how the combined activity of all proteases, rather than the activity of any specific protease, modifies the local microenvironment versus the activity due to any individual enzyme. We synthesized peptides identified in the TAILS proteomic screen that were present on proteins that are known to be secreted or found on the cell membrane, pooled them, and added them either to cell culture media on top of cells, the “Cells” condition, or conditioned media lacking cells, the “Media” condition (Figure 2A). The fraction of peptides remaining after 24 h in each condition was then quantified using LC‐MS. Soluble proteases should be present in both conditions, however, membrane‐type proteases should primarily be found in the samples containing cells and not the conditioned media samples. A key benefit of this approach is that it surveys the total functional proteolytic activity, including the effects of inhibitors and co‐factors, and quantifies the degradation rate of soluble peptides by the complete secretome of different cell types.
(§2) hUVECs (75000 per well) or hMSCs (36000 per well) were seeded into a 48 well plate, and 500 µL media was added to the wells. […] The peptide libraries were dissolved at a stock solution of 10 mM total peptide content. For libraries containing 38 peptides, 95 µL of the stock solution was added to each well; for libraries with 19 peptides, 47.5 µL was added to each well, and media was taken at 0 and 24 h. Add 4 µL of acetic acid to all collected media in the LC‐MS plates and store them in a −80 °C freezer to prevent further proteolytic degradation. From each sample, 10 µL of crude solution was introduced by the LC‐MS through a Thermo Scientific Vanquish LC System (Thermo Fisher Scientific), which outputted to a Thermo Scientific LTQ XL Linear Ion Trap Mass Spectrometer (Thermo Fisher Scientific). The sampled mixture was trapped on a column (ProntoSIL C18 AQ, 120 Å, 3 µm, 2.0 x 50 mm HPLC Column, PN 0502F184PS030, MAC‐MOD Analytical Inc.). The samples were loaded onto the column with a solvent containing acetonitrile/water, 5:95 (v/v) containing 1% acetic acid at a flow rate of 300 µL min^−1 and held for 1 min. The sample was then eluted from the column with a linear gradient of 5–40% Solvent B (1% acetic acid in acetonitrile) at the same flow rate for 5 min. This was followed by a 1 min ramp up to 100% Solvent B, where it was re‐equilibrated with Solvent A (1% acetic acid) to 5% solvent B over the course of 1 min and held there for 2 min. The column temperature was kept at a constant 29 °C, and the mass spectrometer was operated in positive ion mode. Using a Heated ESI, the Source Voltage was set to 4.1 kV, and the capillary temperature was 350 °C. For non‐library degradation studies, 2.5 µL of 10 mM peptide stock solution for each peptide was added.
In the MMP‐14 inhibitor study, the MMP‐14 inhibitor NSC 405 020 (Cayman Chemical Company) was dissolved in DMSO to make a 10 mM stock solution and stored in −20 °C freezer. 0.5 µL MMP‐14 inhibitor stock solution was added to each well to achieve a 10 µM final concentration.
For all degradation studies using soluble peptides, a non‐proteolytically degradable NH2‐βFβAβAβAβAβAβA‐amide (βFβA6) peptide, where βF is β‐phenylalanine and βA is β‐alanine, was added at a 50 µM concentration and used as an internal standard. Peptide degradation ratios were measured by LC‐MS and analyzed by Xcalibur. […]

[2] = Soluble peptide degradation, Media condition (cell-conditioned media, LC-MS)
Experimental: as §1, §2
(§3) To assess the activity of the conditioned media, the media were divided into two equal portions. One portion was used for a standard degradation study, while the other was cultured for an additional 24 h before the PanMMP and KLVADLMASAE were added. After 24 h of incubation, the media were collected for further analysis. To assess the impact of recombinant MMP‐14 on PanMMP and KLVADLMASAE, recombinant MMP‐14 (antibodies.com) was dissolved in the media at a concentration of 0.5 nM. The remaining steps followed the standard degradation study protocol. […]

[3] = as above; remark: listed apart in the source
Experimental: as §1, §2, §3

[4] = hMSCs in culture with fresh media (Cells condition), Figure 2B heatmap, pooled TAILS-derived soluble peptides (Ac-βAla N-terminus, βAla-amide C-terminus) in media on hMSCs (36000 per well, 48 well plate, 500 µL), ratio to βFβA6 internal standard, 24 h / 0 h, N = 5, read-out: Fraction of peptide remaining at 24 hours: hMSC Cells
[5] = hUVECs in culture with fresh media (Cells condition), Figure 2B heatmap, pooled TAILS-derived soluble peptides in media on hUVECs (75000 per well, 48 well plate, 500 µL), ratio to βFβA6 internal standard, 24 h / 0 h, N = 5, read-out: Fraction of peptide remaining at 24 hours: hUVEC Cells
[6] = Figure 2B heatmap, pooled TAILS-derived soluble peptides in 24 h hMSC-conditioned media without cells, ratio to βFβA6 internal standard, 24 h / 0 h, N = 5, read-out: Fraction of peptide remaining at 24 hours: hMSC Media
[7] = Figure 2B heatmap, pooled TAILS-derived soluble peptides in 24 h hUVEC-conditioned media without cells, ratio to βFβA6 internal standard, 24 h / 0 h, N = 5, read-out: Fraction of peptide remaining at 24 hours: hUVEC Media
[8] = hMSCs in culture with fresh media (Cells condition), Figure 3B heatmap, split-and-pool libraries KLVADX1X2ASAE (19 or 38 peptides per library) in media on hMSCs, ratio to βFβA6, N = 2, read-out: Fraction of peptide remaining after 24 hours: hMSC Cells
[9] = hUVECs in culture with fresh media (Cells condition), Figure 3B heatmap, split-and-pool libraries KLVADX1X2ASAE in media on hUVECs, ratio to βFβA6, N = 2, read-out: Fraction of peptide remaining after 24 hours: hUVEC Cells
[10] = hMSC-conditioned media without cells (Media condition), Figure 3B heatmap, split-and-pool libraries KLVADX1X2ASAE in hMSC-conditioned media without cells, ratio to βFβA6, N = 2, read-out: Fraction of peptide remaining after 24 hours: hMSC Media
[11] = hUVEC-conditioned media without cells (Media condition), Figure 3B heatmap, split-and-pool libraries KLVADX1X2ASAE in hUVEC-conditioned media without cells, ratio to βFβA6, N = 2, read-out: Fraction of peptide remaining after 24 hours: hUVEC Media

With `CC(=O)NCCC(=O)N[C@@H](CCCCN)C(=O)N[C@@H](C)C(=O)N1CCC[C@H]1C(=O)NCC(=O)NCC(=O)N[C@@H](CCCCN)C(=O)N[C@@H](C)C(=O)N[C@@H](C)C(=O)NCC(=O)N1CCC[C@H]1C(=O)N[C@@H](C)C(=O)NCCC(N)=O` [KAPGGKAAGPA] (Ac-[βAla]KAPGGKAAGPA[βAla]-NH2) the remaining at 24 h [1, 4] was 78%, the remaining at 24 h [1, 5] was 71% and the remaining at 24 h [2, 6] was 95%. The remaining at 24 h [3, 7] was 88%.

`CC[C@H](C)[C@H](NC(=O)[C@@H](NC(=O)[C@H](CCSC)NC(=O)[C@@H]1CCCN1C(=O)[C@H](CCCCN)NC(=O)[C@H](CCCCN)NC(=O)CCNC(C)=O)[C@@H](C)O)C(=O)N[C@@H](C)C(=O)N[C@@H](CCCNC(=N)N)C(=O)N[C@@H](CC(C)C)C(=O)N[C@@H](CC(N)=O)C(=O)N[C@@H](C)C(=O)N[C@@H](CCCCN)C(=O)N[C@@H](CCCCN)C(=O)NCCC(N)=O` [KKPMTIARLNAKK] (Ac-[βAla]KKPMTIARLNAKK[βAla]-NH2) showed a remaining at 24 h [1, 4] of 75%, a remaining at 24 h [1, 5] of 73% and a remaining at 24 h [2, 6] of 94%. The remaining at 24 h [3, 7] was 74%.

Compound `CC(=O)NCCC(=O)N[C@@H](CC(C)C)C(=O)N[C@@H](C)C(=O)N[C@@H](CC(C)C)C(=O)N[C@@H](CCC(=O)O)C(=O)N[C@@H](C)C(=O)N[C@@H](CCCNC(=N)N)C(=O)N[C@H](C(=O)N[C@H](C(=O)N[C@@H](CC(=O)O)C(=O)N[C@@H](CC(C)C)C(=O)NCCC(N)=O)[C@@H](C)O)[C@@H](C)O` [LALEARTTDL] (Ac-[βAla]LALEARTTDL[βAla]-NH2) has a remaining at 24 h [1, 4] of 68%, a remaining at 24 h [1, 5] of 94% and a remaining at 24 h [2, 6] of 86%. It also gave a remaining at 24 h [3, 7] of 104%.

`CC(=O)NCCC(=O)N[C@@H](CCCCN)C(=O)N[C@@H](CC(C)C)C(=O)N[C@H](C(=O)N[C@@H](C)C(=O)N[C@@H](CC(=O)O)C(=O)N[C@@H](CC(C)C)C(=O)N[C@@H](CC(C)C)C(=O)N[C@@H](C)C(=O)N[C@@H](CO)C(=O)N[C@@H](C)C(=O)N[C@@H](CCC(=O)O)C(=O)NCCC(N)=O)C(C)C` [Leu-Leu] (Ac-[βAla]KLVADLLASAE[βAla]-NH2) showed a remaining at 24 h [1, 8] of 41%, a remaining at 24 h [1, 9] of 91% and a remaining at 24 h [2, 10] of 73%. The remaining at 24 h [3, 11] was 97%.

`CC(=O)NCCC(=O)N[C@@H](CCCCN)C(=O)N[C@@H](CC(C)C)C(=O)N[C@H](C(=O)N[C@@H](C)C(=O)N[C@@H](CC(=O)O)C(=O)N[C@@H](CC(C)C)C(=O)N[C@@H](Cc1c[nH]c2ccccc12)C(=O)N[C@@H](C)C(=O)N[C@@H](CO)C(=O)N[C@@H](C)C(=O)N[C@@H](CCC(=O)O)C(=O)NCCC(N)=O)C(C)C` [Leu-Trp] (Ac-[βAla]KLVADLWASAE[βAla]-NH2) gave a remaining at 24 h [1, 8] of 37%, a remaining at 24 h [1, 9] of 91% and a remaining at 24 h [2, 10] of 62%. The remaining at 24 h [3, 11] was 98%.

`CSCC[C@H](NC(=O)[C@H](CC(=O)O)NC(=O)[C@H](C)NC(=O)[C@@H](NC(=O)[C@H](CC(C)C)NC(=O)[C@H](CCCCN)NC(=O)CCNC(C)=O)C(C)C)C(=O)N[C@@H](C)C(=O)N[C@@H](C)C(=O)N[C@@H](CO)C(=O)N[C@@H](C)C(=O)N[C@@H](CCC(=O)O)C(=O)NCCC(N)=O` [Met-Ala] (Ac-[βAla]KLVADMAASAE[βAla]-NH2) showed a remaining at 24 h [1, 8] of 38%, a remaining at 24 h [1, 9] of 88% and a remaining at 24 h [2, 10] of 61%. The remaining at 24 h [3, 11] was 97%.

For `CSCC[C@H](NC(=O)[C@H](CC(=O)O)NC(=O)[C@H](C)NC(=O)[C@@H](NC(=O)[C@H](CC(C)C)NC(=O)[C@H](CCCCN)NC(=O)CCNC(C)=O)C(C)C)C(=O)N[C@@H](Cc1c[nH]cn1)C(=O)N[C@@H](C)C(=O)N[C@@H](CO)C(=O)N[C@@H](C)C(=O)N[C@@H](CCC(=O)O)C(=O)NCCC(N)=O` [Met-His] (Ac-[βAla]KLVADMHASAE[βAla]-NH2), the remaining at 24 h [1, 8] was 46%, the remaining at 24 h [1, 9] was 90% and the remaining at 24 h [2, 10] was 74%. It also gave a remaining at 24 h [3, 11] of 100%.

Work on `CC[C@H](C)[C@H](NC(=O)[C@H](Cc1c[nH]cn1)NC(=O)[C@H](CCC(=O)O)NC(=O)[C@@H]1CCCN1C(=O)[C@H](Cc1ccccc1)NC(=O)[C@H](CC(N)=O)NC(=O)CCNC(C)=O)C(=O)N[C@@H](Cc1ccccc1)C(=O)N1CCC[C@H]1C(=O)N[C@@H](C)C(=O)N[C@@H](CC(C)C)C(=O)N[C@@H](C)C(=O)NCCC(N)=O` [NFPEHIFPALA] (Ac-[βAla]NFPEHIFPALA[βAla]-NH2) yielded a remaining at 24 h [1, 4] of 73%, a remaining at 24 h [2, 6] of 92% and a remaining at 24 h [3, 7] of 99%.

Compound `CC(=O)NCCC(=O)N1CCC[C@H]1C(=O)N1CCC[C@H]1C(=O)N[C@@H](CO)C(=O)N[C@@H](CCCNC(=N)N)C(=O)N[C@@H](Cc1c[nH]cn1)C(=O)N[C@@H](CC(=O)O)C(=O)N[C@H](C(=O)NCC(=O)N[C@H](C(=O)N1CCC[C@H]1C(=O)NCCC(N)=O)[C@@H](C)O)[C@@H](C)O` [PPSRHDTGTP] (Ac-[βAla]PPSRHDTGTP[βAla]-NH2) has a remaining at 24 h [1, 4] of 100%, a remaining at 24 h [1, 5] of 103% and a remaining at 24 h [2, 6] of 87%. It also gave a remaining at 24 h [3, 7] of 104%.

Work on `CC[C@H](C)[C@H](NC(=O)[C@H](CCCCN)NC(=O)[C@@H](NC(=O)[C@H](CO)NC(=O)[C@H](CO)NC(=O)[C@@H]1CCCN1C(=O)CCNC(C)=O)[C@@H](C)CC)C(=O)N[C@@H](CCCCN)C(=O)N[C@@H](CO)C(=O)N[C@@H](C)C(=O)N[C@@H](CC(=O)O)C(=O)N[C@@H](CCCCN)C(=O)NCCC(N)=O` [PSSIKIKSADK] (Ac-[βAla]PSSIKIKSADK[βAla]-NH2) yielded a remaining at 24 h [1, 4] of 81%, a remaining at 24 h [1, 5] of 86% and a remaining at 24 h [2, 6] of 90%. It also gave a remaining at 24 h [3, 7] of 93%.
